Key:
Caco-2 cell monolayer = test: Metabolism and transport across Caco-2 cell monolayers; assay type: in vitro ADME, human; conditions: 0-8 hours
Description: The Caco-2 cell monolayer is a well-established FDA-recognized model to study the absorption, transport, and metabolism of drugs in the human gastrointestinal tract. This allows for prediction of the disposition of the new compounds in colonic epithelium that is also undergoing carcinogenesis, because Caco-2 is a human colorectal cancer cell line.
After 10 μM 6a1 was applied to the apical or basolateral side of the Caco-2 monolayer model, the concentrations of 6a1 and its main phase II metabolites, glucuronide and sulfate, were monitored at both sides (FIG. 6A-D). The concentration of aglycone was also monitored at both sides. […] The majority of sulfates were effluxed to the apical side, while less was transported to the basolateral side. The amount of glucuronide generated by Caco-2 cells was much less than that of sulfates. The glucuronide was also transported to both sides.

human liver microsomes = test: Glucuronidation by human liver microsomes; assay type: in vitro ADME
Description: (§1) FIG. 5D is a bar graph illustrating in vitro metabolism of phenolics. Glucuronidation rates of 6a1-6a4 by human liver and intestinal microsomes. Additional metabolic rates of various locally bioavailable COX-2 inhibitors are in Table 4. […]. The incubation systems were: for glucuronidation, 0.88 mM magnesium chloride (MgCl2), 4.4 mM saccharolactone, 0.022 mg/mL alamethicin, 3.5 mM uridine 5′-diphospho-glucuronic acid (UDPGA), 10 μM substrates and different concentrations of microsomes in 50 mM potassium phosphate buffer (pH 7.4); for sulfation, 10 mM dithiothreitol (DTT), 5 mM MgCl2, 100 μM 3′-phosphoadenosine-5′-phosphosulfate (PAPS),10 μM substrate and different concentrations of S9 fractions in 50 mM potassium phosphate buffer (pH 7.4).
(§2) In vitro tools were employed to help predict the in vivo metabolism rates of the COX-2 inhibitors that are phenolics. The microsomes and S9 fractions prepared from colon or liver were used to determine the in vivo glucuronidation and sulfation rates of the phenolic compounds, respectively. By employing microsomes and S9 fractions prepared from both rats and humans, it could be determined if the results obtained in the rat model could be reasonably extrapolated to humans. In these experiments, raloxifene and genistein, two phenolic compounds which undergo extensive first-pass metabolism, were selected as controls.

human Colon S9 [1] = test: Glucuronidation by human colon S9; assay type: in vitro ADME; conditions: substrate 10 μM
Description: as §1
as §2, with “The microsomes and S9 fractions prepared from colon or liver were used to determine the in vivo glucuronidation and sulfation rates of the phenolic compounds, respectively.” left out

human Colon S9 [2] = test: Sulfation by human colon S9; assay type: in vitro ADME; conditions: substrate 10 μM
Description: as §1, §2

[3] = Solubility in HBSS with or without β-cyclodextrin; assay type: physicochemical
[4] = tested on: human intestine microsomes; test: Glucuronidation by human intestine microsomes; assay type: in vitro ADME
Description: as §1, §2

rat colon microsomes = test: Glucuronidation by rat colon microsomes; assay type: in vitro ADME
Description: FIG. 5B is a bar graph illustrating in vitro glucuronidation of phenolics in liver and colon microsomes of rats. Glucuronidation rates of 6a1-6a4 by rat liver and colon microsomes were measured. Additional metabolic rates of various locally bioavailable COX-2 inhibitors are in Table 3. […]. The incubation systems were: for glucuronidation, 0.88 mM magnesium chloride (MgCl2), 4.4 mM saccharolactone, 0.022 mg/mL alamethicin, 3.5 mM uridine 5′-diphospho-glucuronic acid (UDPGA), 10 μM substrates and different concentrations of microsomes in 50 mM potassium phosphate buffer (pH 7.4); for sulfation, 10 mM dithiothreitol (DTT), 5 mM MgCl2, 100 μM 3′-phosphoadenosine-5′-phosphosulfate (PAPS), 10 μM substrate and different concentrations of S9 fractions in 50 mM potassium phosphate buffer (pH 7.4).
as §2

[5] = rat, in vivo
Description: For this purpose, blood samples were collected from each rat every hour during the perfusion period, and the bile samples were also collected by cannulating the bile duct.
By comparing the 6a1 concentrations in the input and output perfusate containing β-CD-formulated 6a1, the amounts of 6a1 absorbed from the colon were calculated for each hour during the perfusion period (FIG. 10B).

human COX-2 = target: T1, human COX-2 (Homo sapiens, UniProt P35354); test: In vitro enzyme assay, recombinant human COX-2 (PGE2 production); assay type: biochemical; conditions: for IC50: read-out: IC50 against recombinant human COX-2; for Inhibition of COX-2 enzyme (PGE2 production, FIG. 3A): result in words
T1 sequence (P35354 18-604): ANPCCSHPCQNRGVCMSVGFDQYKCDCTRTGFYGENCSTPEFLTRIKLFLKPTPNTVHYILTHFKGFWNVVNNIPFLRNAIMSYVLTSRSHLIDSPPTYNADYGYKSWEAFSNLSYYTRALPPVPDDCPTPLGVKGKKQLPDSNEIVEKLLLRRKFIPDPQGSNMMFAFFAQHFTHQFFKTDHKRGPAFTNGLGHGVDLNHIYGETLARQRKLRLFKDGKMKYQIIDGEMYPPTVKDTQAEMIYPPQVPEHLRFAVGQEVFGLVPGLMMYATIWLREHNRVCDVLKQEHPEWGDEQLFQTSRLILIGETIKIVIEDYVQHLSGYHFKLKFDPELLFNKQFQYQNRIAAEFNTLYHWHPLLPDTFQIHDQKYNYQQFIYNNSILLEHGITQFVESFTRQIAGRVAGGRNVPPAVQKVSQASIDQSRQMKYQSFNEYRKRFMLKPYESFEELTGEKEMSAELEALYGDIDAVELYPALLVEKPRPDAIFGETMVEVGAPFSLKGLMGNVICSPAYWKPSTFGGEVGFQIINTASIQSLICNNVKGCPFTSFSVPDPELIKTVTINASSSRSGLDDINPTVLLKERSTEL
From the text: FIG. 3A is a bar graph illustration of PGE2 production by recombinant human COX-2 enzyme in the presence of the new compounds. Less PGE2 production means inhibition of COX-2 enzyme.
FIG. 3B is a bar graph illustration of PGE2 production by recombinant human COX-2 enzyme in the presence of the metabolites of the new compounds. Less PGE2 production means inhibition of COX-2 enzyme.

[6] = rat, in vivo, po, 20 mg/kg
Description: The drugs were dispersed in ORA-PLUS® suspension vehicle (from Paddock Laboratories, Minneapolis, Minn.) and administrated to SD rats by oral gavage. The blood samples were collected from the tail tips at different time points.
Therefore, 20 mg/kg 6a1 was administered in suspension vehicle to the proximal colon of SD rats via a catheter reaching approximately 8 cm deep into the anus.

In the case of `Cc1ccc(-c2cc(COc3ccccc3O)nn2-c2ccc(S(N)(=O)=O)cc2)cc1` [Compound 6a1], the “Permeation of the Caco-2 cell membrane” value (Caco-2 cell monolayer; 10 μM applied to apical or basolateral side) is reported as “permeated the Caco-2 cell membrane easily”, the “Phase II conjugation inside Caco-2 cells” value (Caco-2 cell monolayer; 10 μM) is reported as “rapidly conjugated by UGTs and SULTs” and the “Glucuronidation rates by liver microsomes (Mean)” value (human liver microsomes) is reported as 11576 pmol/mg/min. For the same compound, the “Glucuronidation rates by human Colon S9 (Mean)” value (human Colon S9 [1]) was 1080 pmol/mg/min, the “Sulfation rates by human Colon S9 (Mean)” value (human Colon S9 [2]) was 110 pmol/mg/min and the “Osmotic pressure of the solution” value ([3]; 6a1 in HBSS with 4 mM β-CD) was 290 mOsm/kg. For the same compound, the “Solubility in HBSS” value ([3]; in the presence of 4 mM β-CD, after sonication and centrifuge) was 70 µM, the “Glucuronidation rates by intestine microsomes (Mean)” value [4] was 2786 pmol/mg/min and the “Glucuronidation rates by colon microsomes (Mean)” value (rat colon microsomes) was 1111 pmol/mg/min. The “6a1-glucuronide concentration in bile” value [5] was “more than 200 μM”, the “Absorbed amount recovered from bile as glucuronides” value [5] was “approximately 75%” and the “Fraction absorbed in the colon that escaped first-pass metabolism in the liver” value [5] was “less than 1%”. The “Fraction of total perfused amount absorbed in the colon” value [5] was “Approximately 13%”, the IC50 (human COX-2) was 118 nM and the “Inhibition of COX-2 enzyme (PGE2 production, FIG. 3A)” value (“Inhibition of COX-2 enzyme” for short) (human COX-2) was “effective inhibitors”.

With `Cc1ccc(-c2cc(COc3cccc(O)c3)nn2-c2ccc(S(N)(=O)=O)cc2)cc1` [Compound 6a2] the “Glucuronidation rates by liver microsomes (Mean)” value (human liver microsomes) was 1512 pmol/mg/min, the “Glucuronidation rates by intestine microsomes (Mean)” value [4] was 924 pmol/mg/min and the “Glucuronidation rates by colon microsomes (Mean)” value (rat colon microsomes) was 1199 pmol/mg/min. For the same compound, the IC50 (human COX-2) was 201 nM and the “Inhibition of COX-2 enzyme” value (human COX-2) was “effective inhibitors”.

For `Cc1ccc(-c2cc(COc3ccc(O)cc3)nn2-c2ccc(S(N)(=O)=O)cc2)cc1` [Compound 6a3], the “Glucuronidation rates by liver microsomes (Mean)” value (human liver microsomes) was 60 pmol/mg/min, the “Glucuronidation rates by intestine microsomes (Mean)” value [4] was 45 pmol/mg/min and the “Glucuronidation rates by colon microsomes (Mean)” value (rat colon microsomes) was 301 pmol/mg/min. The Peak blood concentration [6] was 1.69 µM, the IC50 (human COX-2) was 1080 nM and the “Inhibition of COX-2 enzyme” value (human COX-2) was “effective inhibitors”.

Source: patent US11202773B2, “Locally bioavailable drugs” (UNIVERSITY OF HOUSTON SYSTEM, priority 2015, dated 2021)
